Laboratory results from patent publication US20230265098A1, “ALKYNE QUINAZOLINE DERIVATIVES AS INHIBITORS OF ERBB2” (EnLiven Therapeutics, Inc., priority 2020, published 2023).

Tests used:
EGFR = EGFR (Homo sapiens, UniProt P00533); assay: Reaction Biology kinase activity assay (33P-ATP, HotSpot); assay type: biochemical; settings: final enzyme concentration 3 nM; 100 μM 33P-ATP; 20 min preincubation, 2 hours at 25° C.
Procedure: Inhibition of kinase activity was assessed using a kinase activity assay (Anastassiadis, T. et al. Nat Biotechnol 2011 29: 1039-1045). In particular, substrate (poly Glu-Tyr sodium salt (Sigma Aldrich, cat #P7244)) was freshly prepared in reaction buffer (20 mM Hepes (pH 7.5), 10 mM MgCl2, 1 mM EGTA, 0.02% Brij35, 0.02 mg/ml BSA, 0.1 mM Na3VO4, 2 mM DTT, 1% DMSO). EGFR, ERBB2 or ERBB2 mutant kinases were added to the substrate solution and mixed at the final concentrations in Table B1, below. Compounds were dissolved in 100% DMSO and the resulting solutions were added to the kinase reaction mixture. The kinase reaction mixture was incubated with the compounds for 20 minutes at room temperature. 100 μM ^33P-ATP (Specific activity 10 μCi/μl) was then added to initiate the reaction. This mixture was incubated for 2 hours at 25° C.
Reactions were spotted onto P81 ion exchange filter paper (Whatman). Unbound phosphate was removed by extensive washing of filters in 0.75% phosphoric acid. Radioactivity was detected using a HotSpot, a proprietary technology of Reaction Biology Corporation (Anastassiadis, T. et al., Nat Biotechnol. 2011 29(11):1039-45). Kinase activity data were expressed as the percentage kinase activity remaining in test samples relative to vehicle only (i.e., DMSO only) control reactions. IC50 values and curve fits were obtained using Prism (GraphPad Software), using a nonlinear regression model with a sigmoidal dose response and are shown in Table B1.

[1] = molecular target: T1, BaF3 EGFR-H773 V774insNPH (Homo sapiens, UniProt P00533, DUP771-773, cells depend on it); assay: Cell viability assay (CellTiter Glo); assay type: cell-based, mouse; settings: 72 hours; 3000 cells per well, 96-well plates; read-out: Cell viability IC50, nM, BaF3 EGFR-H773 V774insNPH
T1 construct: Ba/F3 cell lines were engineered to express human ERBB2 or EGFR kinases, rendering the cells IL-3 independent
In short: (§1)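 Murine Ba/F3 cells made IL-3-independent by retroviral human EGFR or ERBB2 were seeded at 3000 or 300 cells per well and exposed to serially diluted compound (DMSO ≤0.1%) for 72 hours at 37° C, 5% CO2. CellTiter Glo luminescence was normalised to DMSO and media-only controls and fitted to a sigmoidal dose-response.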

[2] = molecular target: T2, BaF3-EGFR-V769 D770insASV (Homo sapiens, UniProt P00533, DUP767-769, cells depend on it); assay: Cell viability assay (CellTiter Glo); assay type: cell-based, mouse; settings: 72 hours; 3000 cells per well, 96-well plates; read-out: Cell viability IC50, nM, BaF3-EGFR-V769 D770insASV
T2 construct: Ba/F3 cell lines were engineered to express human ERBB2 or EGFR kinases, rendering the cells IL-3 independent
In short: as §1

[3] = molecular target: T3, BaF3 EGFR-D770-N771insSVD (Homo sapiens, UniProt P00533, DUP768-770, cells depend on it); assay: Cell viability assay (CellTiter Glo); assay type: cell-based, mouse; settings: 72 hours; 3000 cells per well, 96-well plates; read-out: Cell viability IC50, nM, BaF3 EGFR-D770-N771insSVD
T3 construct: Ba/F3 cell lines were engineered to express human ERBB2 or EGFR kinases, rendering the cells IL-3 independent
In short: as §1

[4] = molecular target: T4, phosphorylated EGFR (pEGFR) (Homo sapiens, UniProt P00533); assay: Detection of phosphorylated EGFR (pEGFR) in EGF-stimulated A431 cells (AlphaLISA); assay type: cell-based; settings: A431 cells (10% FBS), 4 hours with compound, then EGF 30 ng/mL for 10 minutes
T4 construct: endogenous in cells; host or cells: A431

Sequence of EGFR (P00533 25-1210): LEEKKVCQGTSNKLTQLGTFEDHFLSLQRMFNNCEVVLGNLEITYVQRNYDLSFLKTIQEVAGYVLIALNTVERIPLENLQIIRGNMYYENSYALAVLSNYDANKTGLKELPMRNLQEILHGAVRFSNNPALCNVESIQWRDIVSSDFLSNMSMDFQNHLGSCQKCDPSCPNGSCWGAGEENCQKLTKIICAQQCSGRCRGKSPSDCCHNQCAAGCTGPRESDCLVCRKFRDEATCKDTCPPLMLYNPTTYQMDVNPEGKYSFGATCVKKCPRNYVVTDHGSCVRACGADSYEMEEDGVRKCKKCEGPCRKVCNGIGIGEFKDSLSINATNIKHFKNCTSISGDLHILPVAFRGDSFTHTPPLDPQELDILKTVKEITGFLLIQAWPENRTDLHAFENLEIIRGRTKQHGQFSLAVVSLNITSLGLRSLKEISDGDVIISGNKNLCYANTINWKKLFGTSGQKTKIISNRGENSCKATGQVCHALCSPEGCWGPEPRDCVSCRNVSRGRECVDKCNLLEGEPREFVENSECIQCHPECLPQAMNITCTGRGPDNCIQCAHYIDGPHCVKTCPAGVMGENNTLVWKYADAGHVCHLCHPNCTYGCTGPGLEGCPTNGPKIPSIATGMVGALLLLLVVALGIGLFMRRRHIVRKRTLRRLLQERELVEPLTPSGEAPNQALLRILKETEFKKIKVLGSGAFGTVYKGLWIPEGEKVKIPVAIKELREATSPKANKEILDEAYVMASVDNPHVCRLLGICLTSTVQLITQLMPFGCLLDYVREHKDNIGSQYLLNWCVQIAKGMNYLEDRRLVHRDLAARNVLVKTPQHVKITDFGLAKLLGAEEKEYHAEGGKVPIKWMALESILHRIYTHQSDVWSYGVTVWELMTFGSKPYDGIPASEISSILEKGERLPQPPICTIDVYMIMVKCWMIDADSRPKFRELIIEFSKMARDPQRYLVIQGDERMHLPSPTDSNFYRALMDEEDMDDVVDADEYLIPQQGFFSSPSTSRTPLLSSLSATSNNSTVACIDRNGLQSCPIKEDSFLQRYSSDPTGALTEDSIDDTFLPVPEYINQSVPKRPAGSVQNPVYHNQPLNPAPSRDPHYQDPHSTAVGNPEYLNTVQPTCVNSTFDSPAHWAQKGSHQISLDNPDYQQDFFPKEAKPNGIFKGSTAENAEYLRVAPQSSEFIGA
T2 sequence (P00533 with tags, fused parts or gaps DUP767-769): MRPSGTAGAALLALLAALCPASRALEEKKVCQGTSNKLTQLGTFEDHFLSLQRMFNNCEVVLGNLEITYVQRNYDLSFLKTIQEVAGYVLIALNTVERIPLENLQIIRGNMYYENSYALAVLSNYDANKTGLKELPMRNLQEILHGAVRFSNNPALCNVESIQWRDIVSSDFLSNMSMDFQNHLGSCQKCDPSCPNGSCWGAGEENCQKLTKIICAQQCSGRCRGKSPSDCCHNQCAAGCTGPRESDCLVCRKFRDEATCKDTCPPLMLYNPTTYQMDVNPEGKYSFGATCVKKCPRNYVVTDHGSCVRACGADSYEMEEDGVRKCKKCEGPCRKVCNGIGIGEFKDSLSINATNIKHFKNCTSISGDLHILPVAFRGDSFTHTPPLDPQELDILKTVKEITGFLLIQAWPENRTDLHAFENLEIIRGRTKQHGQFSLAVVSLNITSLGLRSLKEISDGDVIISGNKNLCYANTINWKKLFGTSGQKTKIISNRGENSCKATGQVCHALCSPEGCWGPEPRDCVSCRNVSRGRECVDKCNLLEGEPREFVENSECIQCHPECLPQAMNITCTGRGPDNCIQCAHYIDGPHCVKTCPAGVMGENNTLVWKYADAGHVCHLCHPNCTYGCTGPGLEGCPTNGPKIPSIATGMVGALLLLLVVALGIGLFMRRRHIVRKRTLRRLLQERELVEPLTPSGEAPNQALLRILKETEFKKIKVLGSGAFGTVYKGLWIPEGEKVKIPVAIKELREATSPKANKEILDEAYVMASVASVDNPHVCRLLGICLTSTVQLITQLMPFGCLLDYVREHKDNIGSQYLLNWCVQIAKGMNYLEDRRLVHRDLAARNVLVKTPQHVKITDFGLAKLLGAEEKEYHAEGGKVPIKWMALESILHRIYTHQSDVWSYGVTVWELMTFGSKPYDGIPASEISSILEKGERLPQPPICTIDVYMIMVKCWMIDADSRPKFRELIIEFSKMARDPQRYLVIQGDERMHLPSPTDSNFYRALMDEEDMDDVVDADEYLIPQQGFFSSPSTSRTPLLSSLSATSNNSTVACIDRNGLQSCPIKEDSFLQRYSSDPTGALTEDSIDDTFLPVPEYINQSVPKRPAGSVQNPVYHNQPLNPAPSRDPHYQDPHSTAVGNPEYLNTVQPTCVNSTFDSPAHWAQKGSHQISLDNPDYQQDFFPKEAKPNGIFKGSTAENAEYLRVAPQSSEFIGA
T3 sequence (P00533 with tags, fused parts or gaps DUP768-770): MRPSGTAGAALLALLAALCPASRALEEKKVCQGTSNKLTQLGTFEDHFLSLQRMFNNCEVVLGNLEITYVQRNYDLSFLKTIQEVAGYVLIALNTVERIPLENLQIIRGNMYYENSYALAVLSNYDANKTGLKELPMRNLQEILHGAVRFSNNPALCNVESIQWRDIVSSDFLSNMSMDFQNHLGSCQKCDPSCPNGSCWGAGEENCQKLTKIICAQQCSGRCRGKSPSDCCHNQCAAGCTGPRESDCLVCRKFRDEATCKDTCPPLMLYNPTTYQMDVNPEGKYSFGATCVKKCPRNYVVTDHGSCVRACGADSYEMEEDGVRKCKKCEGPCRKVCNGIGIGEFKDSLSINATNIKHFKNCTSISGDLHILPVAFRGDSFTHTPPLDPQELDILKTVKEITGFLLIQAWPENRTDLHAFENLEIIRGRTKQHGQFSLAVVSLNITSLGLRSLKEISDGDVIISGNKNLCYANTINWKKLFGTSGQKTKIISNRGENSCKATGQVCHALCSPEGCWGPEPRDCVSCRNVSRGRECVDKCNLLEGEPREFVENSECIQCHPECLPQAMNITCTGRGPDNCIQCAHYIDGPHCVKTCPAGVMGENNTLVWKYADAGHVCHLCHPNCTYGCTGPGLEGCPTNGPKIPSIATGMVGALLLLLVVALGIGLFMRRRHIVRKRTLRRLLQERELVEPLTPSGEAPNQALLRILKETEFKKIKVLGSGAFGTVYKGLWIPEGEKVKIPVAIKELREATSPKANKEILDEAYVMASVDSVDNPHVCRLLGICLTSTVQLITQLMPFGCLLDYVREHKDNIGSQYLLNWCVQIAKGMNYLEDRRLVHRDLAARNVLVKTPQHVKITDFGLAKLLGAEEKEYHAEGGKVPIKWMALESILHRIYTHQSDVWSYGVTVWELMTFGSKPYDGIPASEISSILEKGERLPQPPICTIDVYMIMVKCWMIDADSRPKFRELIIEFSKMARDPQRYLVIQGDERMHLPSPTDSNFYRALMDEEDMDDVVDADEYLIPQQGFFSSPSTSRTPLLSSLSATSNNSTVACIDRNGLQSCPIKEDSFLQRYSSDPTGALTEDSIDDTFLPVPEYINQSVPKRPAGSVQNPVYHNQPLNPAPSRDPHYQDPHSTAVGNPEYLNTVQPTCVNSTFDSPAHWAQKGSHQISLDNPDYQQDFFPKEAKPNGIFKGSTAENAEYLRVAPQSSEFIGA
T1 sequence (P00533 with tags, fused parts or gaps DUP771-773): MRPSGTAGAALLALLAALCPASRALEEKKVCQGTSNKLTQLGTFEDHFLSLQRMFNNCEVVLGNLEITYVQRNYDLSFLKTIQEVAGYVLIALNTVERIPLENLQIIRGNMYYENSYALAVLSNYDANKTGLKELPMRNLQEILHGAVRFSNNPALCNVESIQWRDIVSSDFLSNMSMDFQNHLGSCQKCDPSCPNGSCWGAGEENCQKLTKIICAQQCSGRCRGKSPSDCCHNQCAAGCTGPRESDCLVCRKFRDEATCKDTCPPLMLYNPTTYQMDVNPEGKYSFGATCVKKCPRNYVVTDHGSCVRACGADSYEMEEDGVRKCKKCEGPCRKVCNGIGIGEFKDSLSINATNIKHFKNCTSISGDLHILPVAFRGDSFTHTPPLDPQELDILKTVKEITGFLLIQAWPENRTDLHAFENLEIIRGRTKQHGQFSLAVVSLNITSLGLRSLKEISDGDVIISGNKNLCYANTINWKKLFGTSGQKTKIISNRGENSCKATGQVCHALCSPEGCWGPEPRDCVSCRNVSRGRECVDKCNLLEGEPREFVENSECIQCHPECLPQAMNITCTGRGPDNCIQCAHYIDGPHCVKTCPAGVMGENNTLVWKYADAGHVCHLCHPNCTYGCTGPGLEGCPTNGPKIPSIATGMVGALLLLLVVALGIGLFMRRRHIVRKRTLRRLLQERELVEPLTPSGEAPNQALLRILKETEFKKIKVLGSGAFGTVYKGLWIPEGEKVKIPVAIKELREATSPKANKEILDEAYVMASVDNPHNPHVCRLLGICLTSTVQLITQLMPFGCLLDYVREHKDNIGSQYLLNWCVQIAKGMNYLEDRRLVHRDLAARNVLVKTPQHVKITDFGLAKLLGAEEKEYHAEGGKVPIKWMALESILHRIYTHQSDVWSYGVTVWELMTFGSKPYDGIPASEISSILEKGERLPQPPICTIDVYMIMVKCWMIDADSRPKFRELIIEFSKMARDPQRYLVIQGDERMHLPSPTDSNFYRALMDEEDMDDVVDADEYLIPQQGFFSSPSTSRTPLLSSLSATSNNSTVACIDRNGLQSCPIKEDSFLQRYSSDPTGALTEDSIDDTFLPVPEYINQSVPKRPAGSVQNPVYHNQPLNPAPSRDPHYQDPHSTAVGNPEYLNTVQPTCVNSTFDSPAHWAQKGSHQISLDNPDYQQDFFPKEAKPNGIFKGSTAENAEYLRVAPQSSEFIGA

SMILES	IC50 (EGFR)	GI50 [1]	GI50 [2]	GI50 [3]	IC50 [4]
CC#CC(=O)Nc1ccc2ncnc(Nc3ccc(Oc4ccn5ncnc5c4)c(C)c3)c2c1 [Compound 1, N-[4-[(3-methyl-4-[[1,2,4]triazolo[1,5-a]pyridin-7-yloxy]phenyl)amino]quinazolin-6-yl]but-2-ynamide]	58 nM	> 1000 nM	861 nM	775 nM	–
CC#CC(=O)Nc1cc2c(Nc3ccc(Oc4ccn5ncnc5c4)c(C)c3)ncnc2cc1OCCN(C)C [Compound 150, N-[7-[2-(dimethylamino)ethoxy]-4-[(3-methyl-4-[[1,2,4]triazolo[1,5-a]pyridin-7-yloxy]phenyl)amino]quinazolin-6-yl]but-2-ynamide]	–	–	–	–	233 nM
Cc1cc(Nc2ncnc3ccc(NC4=NC(C)(C)CO4)cc23)ccc1Oc1ccn2ncnc2c1 [Tucatinib, tucatinib, reference compound]	954 nM	–	–	–	–
